Drawing on publication PMC11643494, “Structure–Activity Relationship Studies in a Series of 2-Aryloxy-N-(pyrimidin-5-yl)acetamide Inhibitors of SLACK Potassium Channels” (Molecules, 2024), this text covers IC50 and Imax for 2 compounds.

The target in the test is T1, Mouse WT SLACK (Mus musculus, UniProt Q6ZPR4).
T1 construct: expressed in transfected cells; host or cells: CHO-K1
T1 sequence (Q6ZPR4 1-1224): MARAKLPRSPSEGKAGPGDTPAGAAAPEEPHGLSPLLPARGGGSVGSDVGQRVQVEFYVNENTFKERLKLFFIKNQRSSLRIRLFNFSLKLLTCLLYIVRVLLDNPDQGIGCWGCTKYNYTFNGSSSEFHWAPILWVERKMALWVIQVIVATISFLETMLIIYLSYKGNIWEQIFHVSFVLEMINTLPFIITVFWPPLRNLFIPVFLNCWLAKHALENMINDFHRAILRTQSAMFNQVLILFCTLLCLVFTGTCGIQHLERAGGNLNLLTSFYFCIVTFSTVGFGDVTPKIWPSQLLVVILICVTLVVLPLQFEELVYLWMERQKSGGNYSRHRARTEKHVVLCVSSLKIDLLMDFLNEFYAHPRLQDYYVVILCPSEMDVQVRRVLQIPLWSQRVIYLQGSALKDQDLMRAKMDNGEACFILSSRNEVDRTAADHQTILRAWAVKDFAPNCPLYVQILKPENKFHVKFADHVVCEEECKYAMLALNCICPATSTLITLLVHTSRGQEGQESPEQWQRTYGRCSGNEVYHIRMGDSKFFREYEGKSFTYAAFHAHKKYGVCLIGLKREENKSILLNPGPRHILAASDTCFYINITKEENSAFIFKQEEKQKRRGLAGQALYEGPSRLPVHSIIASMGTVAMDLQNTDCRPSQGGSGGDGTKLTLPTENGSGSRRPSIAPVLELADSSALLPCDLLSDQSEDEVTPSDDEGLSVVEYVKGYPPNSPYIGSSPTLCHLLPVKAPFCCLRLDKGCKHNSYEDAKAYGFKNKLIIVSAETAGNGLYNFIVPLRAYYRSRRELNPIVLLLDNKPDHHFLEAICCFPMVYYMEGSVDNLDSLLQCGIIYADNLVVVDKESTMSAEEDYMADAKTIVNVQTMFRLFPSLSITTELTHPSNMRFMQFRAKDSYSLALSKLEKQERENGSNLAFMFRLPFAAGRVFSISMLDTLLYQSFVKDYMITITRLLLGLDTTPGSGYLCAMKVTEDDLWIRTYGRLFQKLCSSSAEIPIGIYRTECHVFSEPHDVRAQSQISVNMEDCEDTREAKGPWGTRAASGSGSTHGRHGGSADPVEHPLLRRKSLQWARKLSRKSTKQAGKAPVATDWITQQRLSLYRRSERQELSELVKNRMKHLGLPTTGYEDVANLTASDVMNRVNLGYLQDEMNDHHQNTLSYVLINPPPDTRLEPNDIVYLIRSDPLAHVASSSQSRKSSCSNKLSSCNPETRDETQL
As to the kind of experiment: Whole-cell APC in CHO-K1 cells stably expressing mouse WT SLACK. The test is classed as cell-based. As to conditions: for IC50: APC, CHO-K1 cells; for Imax: maximum inhibition at 30 µM standardized to VU0606170 (set at 100%). Here is the method: Finally, we chose to screen the same two compounds versus mouse SLACK and two clinically relevant GOF SLACK mutants in APC assays utilizing CHO-K1 cells stably expressing these targets (Table 7). Screening versus the mouse homolog was deemed important for evaluating the potential of the series to ultimately lead to a useful in vivo tool via further optimization.
Automated patch clamp recording was performed with a SyncroPatch 768 PE system (Nanion, Munich, Germany) as previously described. Whole-cell recordings were performed at room temperature. Cells were harvested by first washing with PBS without Mg^2+ or Ca^2+ (Gibco, Billings, MT, USA) to remove cell culture medium, followed by dissociation with TryPLE (Gibco, Billings, MT, USA). Cells were then resuspended and diluted to 200,000 cells/mL in external solution. External solution contained 105 mM NaCl, 4 mM KCl, 1 mM MgCl2, 5 mM CaCl2, 10 mM HEPES, 40 mM N-Methyl-D-glucamine chloride, titrated to pH 7.4 with NaOH and osmolarity of 300 mOsm/kg; internal solution contained 70 mM NaCl, 70 mM KF, 10 mM KCl, 5 mM EGTA, 5mM HEPES, titrated to a pH 7.2 with KOH and osmolarity of 295 mOsm/kg.
The APC protocol was set as following: Cells were held at […] −80 mV for 100 ms, then a ramp protocol was performed from −100 mV to 80 mV at 0.4 mV/ms, hold the cell at −80 mV for another 100 ms, then steps were performed at −20 mV, 0 mV, +20 mV, +40 mV, and +60 mV for 100 ms of each step. Whole-cell currents were measured at 0 mV and normalized to current after external buffer addition.

As usually defined, the IC50 is the point on the concentration scale where inhibition reaches its midpoint. The compound `CC(C)(Oc1ccc(Cl)cc1)C(=O)Nc1cnc(Oc2c(F)cccc2F)nc1` [Analog 40] returned an IC50 of 320 nM and an Imax of 100%.
For `CN(c1ccc(C#N)cc1)c1ncc(NC(=O)C(C)(C)Oc2ccc(Cl)cc2)cn1` [Analog 66], in that order: 790 nM and 91%.
